Results on twelve compounds are retold here after patent US5248691A, “Furanoindolines” (Eli Lilly and Company, priority 1992, dated 1993).

In data set [1] the test system is human squamous cell lung carcinoma (T222). Description: In vitro cytotoxicity, [3H]leucine uptake, T222 cells. The class given is cell-based. To be noted: for IC50: read-out: IC50 (50% cytotoxic concentration). How it is done: (§1) The cytotoxicities of 4-12 were determined by incubation (48 hours) of drug with a human squamous cell lung carcinoma (T222) and percent inhibition determined by measurement of [^3 H]leucine uptake. T222 (Masui, et al. Cancer, 44(3): 1002-1007, 1984) human squamous carcinoma and P3/UCLA (Varki, et al., Cancer Res. 44: 681-687, 1984) human lung carcinoma cells were grown in DMEM medium supplemented with 10% fetal bovine serum and 50 ug/mL gentamicin using standard tissue culture techniques. 1×10^4 target cells were distributed in each well of 96 well tissue culture plates and incubated in leucine deficient medium (leucine free DMEM plus 13 ug/mL L-leucine, 29.2 ug/mL L glutamine, 50 ug/mL gentamicin and 10% dialyzed fetal calf serum) for 16 hours at 37° C. in 5% CO2. The medium was then removed aseptically and compound dilutions were added in 200 ul of leucine deficient medium. Following an additional 48 hour incubation, 4 uCi ^3 H-leucine (NEN, Boston, Mass.) were added to each well and the plates were returned to the incubator for 24 hours. Radioactivity incorporated into macromolecules was determined using an automated cell harvester and liquid scintillation techniques. Data were evaluated as percent reduction in incorporation of radioactivity relative to controls incubated in medium without compound to yield an 50% cytotoxic concentration (IC50).

In data set [2] the test system is human lung adenocarcinoma (P3/UCLA). Description: In vitro cytotoxicity, similar protocol, P3/UCLA cells. Format: cell-based. As for the experimental part: as §1
For another data set, the system named is T222 tumor. In words: Nude mouse xenograft, T222 tumor burden (i.v.). Conditions: for Number of Deaths/Number of Mice / Percent Inhibition of Tumor Growth: days 3, 5 and 7. The class given is in vivo, nude mice. Set-up: inhibition of growth of tumors (in words): dose or concentration left out as unconfirmed. How it is done: Prior to each xenograft experiment, cells were collected by treatment with Trypsin/EDTA (Gibco, Life Technologies, Grand Island, N.Y.) and washed with supplemented DMEM and finally suspended in Hanks balanced salt solution. 1×10^7 cells were injected s.c. into the flank of young adult female nude mice (Charles River Breeding Laboratories, Boston, Mass.). The mice were treated by i.v. injection in the tail vein at various time points. Tumor measurements were taken in two dimensions and converted to an estimate of mass using the formula [(length) (width^2)/2] as described by Geran, et al.. Cancer Chemother. Rep., 3:1-103, 1972. Control groups contained 10 mice with test groups containing 5 mice each. The Student test was used to evaluate differences between mean tumor masses.

The subject of data set [3] is minor groove of double stranded DNA. To be noted: cited from earlier work.
The conditions of data set [4]: single intravenous subtherapeutic dose; healthy mice; cited from earlier work.
[5] abbreviates: T222 human squamous cell lung carcinoma, 48 hours incubation, [3H]leucine uptake.

In brackets after ≈: the same amount, converted by molar mass. Where two headings read alike, the source gives them in different places.

In the case of `Cc1coc2c(O)cc3c(c12)C(CCl)CN3C(=O)c1cc2cc(NC(=O)c3cc4ccccc4[nH]3)ccc2[nH]1` (single isomer, unassigned; (+)) [Compound 4], the IC50 amounted to 0.17 ng/mL (≈ 0.315 nM) in data set [1] (setting [5]) and 0.27 ng/mL (≈ 0.501 nM) in data set [2]. Also, the “Number of Deaths/Number of Mice” value in the data set with T222 tumor (0.05 mg/kg i.v.) is reported as 0/5; with T222 tumor (0.1 mg/kg i.v.), 0/5; in the data set on T222 tumor (0.2 mg/kg i.v.) it was 1/5; in the data set on T222 tumor (0.4 mg/kg i.v.), 5/5. The “Percent Inhibition of Tumor Growth” value with T222 tumor (0.05 mg/kg i.v.) is 68%; with T222 tumor (0.1 mg/kg i.v.), 73%; in the data set on T222 tumor (0.2 mg/kg i.v.) it was 85%. Moreover, the “inhibition of growth of tumors (in words)” value in the data set on T222 tumor (intravenously on days 3, 5 and 7, T222 burden injected s.c. at day 0) is recorded as “inhibited the growth of tumors”.
Consider `Cc1coc2c(O)cc3c(c12)C(CCl)CN3C(=O)c1cc2cc(NC(=O)c3cc4ccccc4o3)ccc2[nH]1` (single isomer, unassigned; (+)) [Compound 5], for which the IC50 in data set [1] (setting [5]) stood at 0.15 ng/mL (≈ 0.278 nM).
Still for that read-out and setting: for `Cc1coc2c(O)cc3c(c12)C(CCl)CN3C(=O)c1cc2cc(NC(=O)c3cc4ccccc4s3)ccc2[nH]1` (single isomer, unassigned; (+)) [Compound 6] the value was 0.2 ng/mL (≈ 0.36 nM).
Take `Cc1coc2c(O)cc3c(c12)C(CCl)CN3C(=O)c1cc2cc(NC(=O)c3cc4ccccc4[nH]3)ccc2o1` (single isomer, unassigned; (+)) [Compound 7]: in data set [1] (setting [5]), the IC50 was 0.23 ng/mL (≈ 0.426 nM).
The same measure, in the same setting: for `Cc1coc2c(O)cc3c(c12)C(CCl)CN3C(=O)c1cc2cc(NC(=O)c3cc4ccccc4o3)ccc2o1` (single isomer, unassigned; (+)) [Compound 8] the value was 0.37 ng/mL (≈ 0.684 nM).
Same read-out and setting: for `Cc1coc2c(O)cc3c(c12)C(CCl)CN3C(=O)c1cc2cc(NC(=O)c3cc4ccccc4s3)ccc2o1` (single isomer, unassigned; (+)) [Compound 9] the value was 0.56 ng/mL (≈ 1.01 nM).
Consider `Cc1coc2c(O)cc3c(c12)C(CCl)CN3C(=O)c1cc2cc(NC(=O)c3cc4ccccc4[nH]3)ccc2s1` (single isomer, unassigned; (+)) [Compound 10], for which the IC50 in data set [1] (setting [5]) was 0.29 ng/mL (≈ 0.522 nM).
On the same count and under the same terms, for `Cc1coc2c(O)cc3c(c12)C(CCl)CN3C(=O)c1cc2cc(NC(=O)c3cc4ccccc4o3)ccc2s1` (single isomer, unassigned; (+)) [Compound 11] the value was 0.26 ng/mL (≈ 0.467 nM); for `Cc1coc2c(O)cc3c(c12)C(CCl)CN3C(=O)c1cc2cc(NC(=O)c3cc4ccccc4s3)ccc2s1` (single isomer, unassigned; (+)) [Compound 12], 0.2 ng/mL (≈ 0.349 nM).
Regarding `CCC1(O)CC2CN(CCc3c([nH]c4ccccc34)C(C(=O)OC)(c3cc4c(cc3OC)N(C)C3C(O)(C(=O)NN)C(O)C5(CC)C=CCN6CCC43C65)C2)C1` (stereo not shown) [4-desacetylvinblastine-3-carboxhydrazide, reference compound], the IC50 in data set [1] (Homo sapiens, T222, 48 h) came to 3 ng/mL (≈ 3.9 nM).
On to `COc1c(O)c2c(c3cc(C(=O)N4CCc5c4c(O)c(OC)c4[nH]c(C(=O)N6CC7CC78C6=CC(=O)c6[nH]cc(C)c68)cc54)[nH]c13)CCN2C(N)=O` (stereo not shown) [CC-1065], for which the DNA binding result in data set [3] is given as “binds covalently to the minor groove of double stranded DNA”. Further, the “delayed deaths / hepatotoxicity” value in data set [4] is “led to delayed deaths of healthy mice as a result of the hepatotoxicity”.
On to `Cc1coc2c(O)cc3c(c12)C(CCl)CN3C(=O)c1cc2cc(NC(=O)c3cc4ccccc4[nH]3)ccc2[nH]1` (stereo not drawn) [enantiomer of 4], for which the “antineoplastic potency relative to 4” value in data set [1] (T222 cell line, compared with 4) is “approximately ten fold less potent”.
